Assay results published in article PMC3658936, “Comparison of cyclic RGD peptides for αvβ3 integrin detection in a rat model of myocardial infarction” (EJNMMI Research, 2013).
Read-outs that look alike come from different tables or passages of the source.

Key:
αvβ3 integrin [1] = assay: in vivo; conditions: for tissue uptake per volume at 1.375 h: male, Lewis, in vivo, iv, total radioactivity
Procedure: Permanent ligation of the left anterior descending coronary artery was performed, as previously described in 34 healthy male Lewis rats (Charles Rivers Laboratories, Sulzfeld, Germany) aged 8 to 10 weeks to induce MI. Briefly, the rats were anaesthetised with intramuscular administration of midazolam 5 mg/kg (Dormicum®, Roche; Grenzach-Wyhlen, Germany), medetomidin 0.5 mg/kg (Dormitor®, Pfizer, Karlsruhe, Germany) and fentanyl 0.05 mg/kg (Ratiopharm, Ulm, Germany) and connected to a rodent ventilator. The heart was exposed through a left lateral thoracotomy of the fourth intercostal space, and the left anterior descending (LAD) artery was ligated near to its origin (2 to 3 mm from the tip of the left atrium). Two rats underwent sham operation, which consisted of the same procedures except that the LAD artery suture was not tightened. The rats were treated with 0.05 mg/kg buprenorphin (Temgesic®, Essex, Germany) and 4 mg/kg carprofen (Rimadyl, Pfizer, Germany) for 72 h post surgery. The study protocols were approved by the regional governmental commission for animal protection (Regierung von Oberbayern, Munich, Germany).
A subset of animals (n = 7) was imaged using a small-animal PET/CT scanner (Inveon, Siemens Medical Solutions, Knoxville, TN, USA). The rats were anaesthetised using 1.5% isoflurane. Breathing was monitored and temperature was maintained using a heating pad throughout the imaging procedures. The rats were injected with 37 MBq of [^13N]NH3 via tail a vein catheter, and perfusion images were acquired for 15 min starting at the time of injection. A CT scan was performed for anatomical localisation. The animals were left anaesthetised in the scanner, and 60 min later, the animals were injected with either ^68Ga-NODAGA-RGD (72 MBq, n = 4) or ^68Ga-TRAP(RGD)3 (63 MBq, n = 3) via the tail vein. […]
The ^68Ga- and ^13N-PET images were fused, and the uptake was visualised using the Inveon Research Workplace (Siemens, Knoxville, TN, USA). […] The mean radioactivity concentration within the ROI was expressed as the percentage of injected dose per cubic centimetre (% ID/cc).

[2] = Ex vivo biodistribution in tissues by gamma counting; parameters: species or system rat; conditions: for tissue uptake at 1.5 h: Lewis, rat, in vivo, total radioactivity
Procedure: Rats were anesthetised using 1.5% isoflurane and were injected via tail vein catheter with ^18F-galacto-RGD (37 MBq, n = 9), ^68Ga-NODAGA-RGD (69 MBq, n = 10) or of ^68Ga-TRAP(RGD)3 (54 MBq, n = 12). Rats were kept under anaesthesia in a warmed bed until euthanized after 90 min using intravenous injection of 150 mg/kg of pentobarbiturate (Narcoren®, Merial, Rohrdorf, Germany). The heart was excised and cut transaxially at the location of the infarct. The apical part, containing both infarct and non-affected remote myocardium, was processed for sectioning for autoradiography as described below.
Tissue samples (remote myocardium, apical part of myocardium, femoral muscle, operation wound and the connective tissue contralateral to the wound, spleen, liver, kidney, urine and blood) were dissected, and the weights of the tissue, urine, blood and serum samples were measured and their activity was detected using a gamma counter (1480 Wizard, PerkinElmer Wallac, Turku, Finland).

αvβ3 integrin [3] = assay: Ex vivo autoradiography of RGD tracer uptake in the myocardium (infarct vs. remote); conditions: rat MI 1 week after LAD ligation, 90 min p.i., mean ± SD
Procedure: Permanent ligation of the left anterior descending coronary artery was performed, as previously described in 34 healthy male Lewis rats (Charles Rivers Laboratories, Sulzfeld, Germany) aged 8 to 10 weeks to induce MI. Briefly, the rats were anaesthetised with intramuscular administration of midazolam 5 mg/kg (Dormicum®, Roche; Grenzach-Wyhlen, Germany), medetomidin 0.5 mg/kg (Dormitor®, Pfizer, Karlsruhe, Germany) and fentanyl 0.05 mg/kg (Ratiopharm, Ulm, Germany) and connected to a rodent ventilator. […]
The excised hearts were frozen and embedded in Tissue Tek® mounting media (Sakura Finetek Europe B.V., Alphen aan den Rijn, the Netherlands). […] After an overnight exposure, the imaging plates were scanned with an image plate scanner (CR 35 BIO, Dürr Medical, Raytest Isotopenmeßgeräte GmbH, Germany; internal resolution of 25 μm), and the images were analysed for background-corrected count densities (PSL/mm^2) with an image analysis programme (AIDA Image Analyser, Raytest Isotopenmeßgeräte, Germany). […]
(§1) After careful co-registration of the autoradiographs and HE histological images, regional tracer uptake was analysed in the following two regions: (1) the infarcted myocardium containing the border zone as assessed after HE staining and (2) the remote, non-affected myocardium. […]

αvβ3 integrin [4] = tested on: αvβ3 integrin; parameters: method as in PMID 22147338, PMID 22444238; conditions: competitive displacement assay on M21 human melanoma cells; cited from earlier work
αvβ3 integrin [5] = assay: Specificity of RGD binding: pre-injection of a blocking dose of cilengitide, autoradiography; format: in vivo, rat; conditions: cilengitide 18 mg/kg 10 min prior to tracer injection
Procedure: The specificity of the RGD binding was studied on three rats with pre-injection of a blocking dose of cilengitide (18 mg/kg = 30.6 μmol/kg) 10 min prior to the tracer injection.
The excised hearts were frozen and embedded in Tissue Tek® mounting media (Sakura Finetek Europe B.V., Alphen aan den Rijn, the Netherlands). Serial LV short-axis cryosections of 20-μm thickness were obtained. Similar sections of muscle and spleen samples of the same rat were processed and used as negative and positive controls. After quick air drying, the sections were exposed to an imaging plate (Kodak Storage Phosphor screen GP, Eastman Kodak Company, Rochester, NY, USA). After an overnight exposure, the imaging plates were scanned with an image plate scanner (CR 35 BIO, Dürr Medical, Raytest Isotopenmeßgeräte GmbH, Germany; internal resolution of 25 μm), and the images were analysed for background-corrected count densities (PSL/mm^2) with an image analysis programme (AIDA Image Analyser, Raytest Isotopenmeßgeräte, Germany). […]
as §1

`N=C(N)NCCC[C@@H]1NC(=O)[C@H](CCCCNC(=O)CCC(C(=O)O)N2CCN(CC(=O)O)CCN(CC(=O)O)CC2)NC(=O)[C@@H](Cc2ccc(O)cc2)NC(=O)[C@H](CC(=O)O)NC(=O)CNC1=O` (stereo partly shown) [^68Ga-NODAGA-RGD, ^68Ga-NODAGA-cyclo(RGDyK), metal not drawn] gave a tissue uptake per volume at 1.375 h (αvβ3 integrin [1]; rat) of 0.17 ± 0.03 %ID/mL, a tissue uptake at 1.5 h ([2]; Biodistribution: Apical myocardium) of 0.156 ± 0.06 %ID/g and a tissue uptake at 1.5 h ([2]; Biodistribution: Blood) of 0.058 ± 0.02 %ID/g. For the same compound, the tissue uptake at 1.5 h ([2]; Biodistribution: Connective tissue) was 0.11 ± 0.05 %ID/g, the tissue uptake at 1.5 h ([2]; Biodistribution: Kidney) was 1.1 ± 0.7 %ID/g and the tissue uptake at 1.5 h ([2]; Biodistribution: Liver) was 0.23 ± 0.17 %ID/g. The tissue uptake at 1.5 h ([2]; Biodistribution: Muscle) was 0.035 ± 0.01 %ID/g, the tissue uptake at 1.5 h ([2]; Biodistribution: Remote myocardium) was 0.071 ± 0.03 %ID/g and the tissue uptake at 1.5 h ([2]; Biodistribution: Serum) was 0.094 ± 0.05 %ID/g. The tissue uptake at 1.5 h ([2]; Biodistribution: Spleen) was 0.246 ± 0.16 %ID/g, the tissue uptake at 1.5 h ([2]; Biodistribution: Urine) was 20.2 ± 6.4 %ID/g and the tissue uptake at 1.5 h ([2]; Biodistribution: Wound) was 0.27 ± 0.24 %ID/g.

For `N=C(N)NCCC[C@@H]1NC(=O)[C@H](CCCCNC(=O)CCP(=O)(O)CN2CCN(CP(=O)(O)CCC(=O)NCCCC[C@@H]3NC(=O)[C@@H](Cc4ccccc4)NC(=O)[C@H](CC(=O)O)NC(=O)CNC(=O)[C@H](CCCNC(=N)N)NC3=O)CCN(CP(=O)(O)CCC(=O)NCCCC[C@@H]3NC(=O)[C@@H](Cc4ccccc4)NC(=O)[C@H](CC(=O)O)NC(=O)CNC(=O)[C@H](CCCNC(=N)N)NC3=O)CC2)NC(=O)[C@@H](Cc2ccccc2)NC(=O)[C@H](CC(=O)O)NC(=O)CNC1=O` [^68Ga-TRAP(RGD)3, ^68Ga-TRAP(cyclo(RGDfK))3, metal not drawn], the “infarct vs. remote PSL/mm2 uptake ratio” value (αvβ3 integrin [3]) was 4.1 ± 0.7, the “infarct-to-remote ratio (PET)” value (αvβ3 integrin [1]; PET image-derived, rat MI 1 week) was 1.9 and the tissue uptake per volume at 1.375 h (αvβ3 integrin [1]; PET, 82.5 min after injection, rat MI 1 week, read-out: image-derived average uptake in the myocardium, infarct area) was 0.25 ± 0.02 %ID/mL. It also gave a tissue uptake at 1.5 h ([2]; 90 min p.i., mean ± SD, contains both infarct and remote areas, read-out: Biodistribution: Apical myocardium) of 0.353 ± 0.1 %ID/g, a tissue uptake at 1.5 h ([2]; 90 min p.i., mean ± SD, contralateral to the wound, read-out: Biodistribution: Connective tissue) of 0.19 ± 0.08 %ID/g and a tissue uptake at 1.5 h ([2]; 90 min p.i., mean ± SD, read-out: Biodistribution: Blood) of 0.101 ± 0.07 %ID/g. It also gave a tissue uptake at 1.5 h ([2]; 90 min p.i., mean ± SD, read-out: Biodistribution: Kidney) of 1.45 ± 0.51 %ID/g, a tissue uptake at 1.5 h ([2]; 90 min p.i., mean ± SD, read-out: Biodistribution: Liver) of 0.524 ± 0.61 %ID/g and a tissue uptake at 1.5 h ([2]; 90 min p.i., mean ± SD, read-out: Biodistribution: Muscle) of 0.066 ± 0.03 %ID/g. The tissue uptake at 1.5 h ([2]; 90 min p.i., mean ± SD, read-out: Biodistribution: Remote myocardium) was 0.154 ± 0.09 %ID/g, the tissue uptake at 1.5 h ([2]; 90 min p.i., mean ± SD, read-out: Biodistribution: Serum) was 0.166 ± 0.12 %ID/g and the tissue uptake at 1.5 h ([2]; 90 min p.i., mean ± SD, read-out: Biodistribution: Spleen) was 0.415 ± 0.3 %ID/g. It also gave a tissue uptake at 1.5 h ([2]; 90 min p.i., mean ± SD, read-out: Biodistribution: Urine) of 35.1 ± 22.4 %ID/g, a tissue uptake at 1.5 h ([2]; 90 min p.i., mean ± SD, read-out: Biodistribution: Wound) of 0.256 ± 0.12 %ID/g and an apical-to-remote ratio ([2]; gamma counting, apical part vs. remote myocardium tissue sample) of 2.1. The IC50 (αvβ3 integrin [4]) was 0.044 µM.

In the case of “^18F-galacto-cyclo(RGDfK) [^18F-galacto-RGD, reference compound]”, the “infarct vs. remote PSL/mm2 uptake ratio” value (αvβ3 integrin [3]) is given as 4.7 ± 0.8 and the IC50 (αvβ3 integrin [4]) is given as 0.319 µM.

For cilengitide, the “effect of pre-injection of high-dose cilengitide on tracer uptake” value (αvβ3 integrin [5]) was “reduced the uptake in the myocardium and also in the spleen”.
